Columns and labels:
[1] = system: HeLa cells; assay: Fluorescence imaging of HeLa cells with CellMask Orange co-stain (colocalization); type: cell-based; details: for cellular localization: HeLa cells co-stained with CellMask Orange, 10 minutes; for Pearson correlation coefficient with CellMask Orange: HeLa cells, 10 minutes incubation, single cell image, DAPI vs Cy-5 filter sets
Experimental: (§1) All images were captured with a Leica DM 400 B microscope with a DFC3000G camera (Leica Microsystems, Germany) and 63× oil immersion or 40× lenses. HeLa cells were staged according to the aforementioned methods. Leica LASX Core Software (Leica Microsystems, Germany) was used to acquire the images. All images were processed using ImageJ. The Pearson correlation coefficient was calculated using the image of a single cell using an ImageJ plugin called Colocalization Finder by Christophe Laummonerie and Jerome Mutterer of Institut de Biologie Moleculaire des Plantes.
To further optimize staining and understand the localization of the dyes in HeLa cells, a co-stain was introduced to the cells with the dyes while also utilizing a shorter incubation time. Sterile glass poly-D-lysine coated #1.5 cover slips (NeuVitro), pre-incubated with culture medium, were placed in sterile 6-well plates. A single cell suspension of the HeLa (cervical cancer cells) cell line was prepared at 5×10^4 cells ml-1 in the appropriate medium. Volumes of 2.0 mL were pipetted into each of the wells containing the coverslips. The 6-well plate was left overnight at 37.0° C. in a 5.0% CO2 incubator. Following the overnight incubation, the plate was aspirated and PBS, containing the CellMask Orange (ThermoFischer Scientific) (at 1000× dilution with 0.10% DMSO) in a volume of 1.8 mL, was gently pipetted onto the cell monolayers attached to the glass cover slips. To the CellMask doped PBS 200 μl of 4 or 9 at 50 μM was added to the respective well. Cells on the cover slips were exposed to the dye for approximately 10 minutes. Cells were washed with PBS and treated with 4.0% paraformaldehyde solution prepared in PBS, incubated for 30 minutes at room temperature for full fixation. Three washes with 1 ml of PBS were completed to ensure excess solution was rinsed away. Glass cover slips were removed and mounted on slides with ProLong Gold Antifade Mountant (ThermoFisher Scientific). The specimen was dried for several minutes and sealed with clear nail polish before visualized under a microscope.
The modest modification came in two parts; the PBS used to replace the media was now doped with a 1000× dilution of CellMask Orange (plasma membrane dye) and the incubation time for the co-stain and dyes was shortened to 10 minutes. These subtle modifications were done to determine if the dyes, 4 and 9, could be used with short incubation periods and to follow the manufacture's staining instructions for CellMask Orange. […] CellMask Orange is a known dye which readily localizes in the plasma membrane. […] The overlap was quantified using a Pearson correlation coefficient calculation with the Colocalization Finder plugin for ImageJ using a single cell image cropped from the images. […]

[2] = UV/visible absorbance spectra in acetonitrile; type: physicochemical; details: for molar absorptivity: 0.01 mM solutions in HPLC grade acetonitrile; for λabs (absorbance maxima): Measured in CAN
Experimental: (§2) All chemicals were obtained from Alfa Aesar, Oakwood Chemical, Ark Pharm, ThermoFisher Scientific, and Sigma-Aldrich. They were used without further purification. Flash chromatography was performed using a Biotage Horizon with silica gel (SiliaFlash P60) purchased from SiliCycle. ^1H and ^13C NMR spectra were gathered on a Bruker DRX-400 in either DMSO-d6 or CDCl3. High-resolution mass spectra were measured using a ThermoScientific Q Exactive Orbitrap equipped with a Nano ESI ionization source. Absorption spectra were recorded using a Shimazdu UV-1800 UV-Vis spectrophotometer using samples contained in 10×10 mm quartz cell at a concentration of 0.01 mM. Fluorescence spectra were gathered on a Shuimazdu RF-5301 PC in a 10×10 mm quartz cuvette.
(§3) The two dyes, upon their successful synthesis and isolation, had their photophysical data gathered beginning with absorbance, which was measured through the visible and ultraviolet region. Absorbance spectra were gathered using 0.01 mM solutions of the respective compound in HPLC grade acetonitrile. The spectra are nearly identical. This was of no surprise as the chromophore is the same on both molecules; however, 9 has a more substantial absorbance than 4 with a respective molar absorptivity of 66,000 M^−1cm^−1 and 51,700 M^−1 cm^−1. The absorbance determination was followed by the fluorescence emission and excitation spectra being gathered using solutions where the absorbance of the respective compound was 0.041 at 250 nm in acetonitrile (FIG. 1). This was done to save material as the same solutions were then used to determine the fluorescent quantum yield. The excitation spectra of 4 and 9 followed the same pattern, though the two were slightly offset from one another when overlaid with respect to the x-axis.

[3] = Fluorescence excitation/emission spectra and fluorescent quantum yield (single point method, naphthalene standard); type: physicochemical; details: for λex (excitation maxima): Measured in CAN; for λem (emission maxima) / φ (fluorescent quantum yield, single point method): Measured in CAN (acetonitrile); for φ (fluorescent quantum yield, single point method): naphthalene standard, absorbance 0.041 at 250 nm
Experimental: as §2, §3
The fluorescent quantum yield was then determined by the single point method with Eq. 1.
Naphthalene was used as the standard where it was also made into a solution with acetonitrile at a concentration which allowed the absorbance to be 0.041 at 250 nm. The fluorescent quantum yields of 4 and 9 were determined to be 0.40 and 0.67, respectively.

[4] = system: HeLa cells; assay: Metabolic proliferation (MTS) assay, toxicity in HeLa cells; type: cell-based
Experimental: HeLa cells were cultured in RPMI (ThermoFisher) supplemented with 10% FBS (ThermoFisher) and 1% penicillin-streptomycin (ThermoFisher 10000 U/mL). Cells (5000 cells/well in 100 μL) were plated in a 96-well culture plate (Greiner) and incubated for […]. Fifty microliters of the compound dissolved in complete media (final DMSO concentration 1%) at final concentrations of 100 μM, 10 μM, 1 μM, 100 nM, 10 nM, and 1 nM were added to the appropriate wells. After incubation of the cells at 37° C. in a humidified atmosphere of 5% CO2 for 120 h, the cells were stained and incubated with MTS reagent (Promega) for 2 h to determine cell viability. The absorbance of each well was taken at 490 nm using a multimode plate reader (FlexStation 3, Molecular Devices, San Diego, Calif.). GraphPad Prism was used to analyze data to determine the percent viability. […] Quadruplicate measurements were performed for each compound.
The toxicity of 4 and 9 was determined in HeLa cells. The HeLa cells were treated with concentrations of the respective dye varying between 1 nm and 100 μM for 72 hours.

[5] = system: HeLa cells; assay: Fluorescence imaging of HeLa cells without co-stain; type: cell-based; details: 5.0 uM dye, approximately 2 hours, no co-stain
Experimental: as §1
Sterile glass poly-D-lysine coated #1.5 cover slips (NeuVitro), pre-incubated with culture medium, were placed in sterile 6-well plates. A single cell suspension of the HeLa (cervical cancer cell) cell line was prepared at 5×10^4 cells mL^−1 in the appropriate medium. Volumes of 2.0 mL were pipetted into each of the wells containing the coverslips. The 6-well plate was left overnight at 37.0° C. in a 5.0% CO2 incubator. Following the overnight incubation, the plate was aspirated dry and then PBS, containing the drug (at 5.0 uM and 0.10% DMSO) in a volume of 2.0 mL, was gently pipetted onto the cell monolayers attached to the glass cover slips. Cells on the cover slips were exposed to the dye for approximately 2 hours in the incubator at 37.0° C. in a 5.0% CO2. […]

[6] = 100 μM, 72 hours (FIG. 4: 120 h)
[7] = concentrations needed for standard imaging protocols (range 1 nm to 100 μM), 72 hours

For `O=C(O)CCCc1ccc2c(c1)-c1ccccc1S2(=O)=O` [Compound 4, 4-(5,5-dioxidodibenzo[b,d]thiophen-2-yl)butanoic acid], the cellular localization [1] was “localize in the plasma membrane”, the “Pearson correlation coefficient with CellMask Orange” value [1] was 0.66 and the “log εmax (maximum molar extinction coefficient)” value [2] was 3.71 M^−1 cm^−1. For the same molecule, the molar absorptivity [2] was 51,700 M^−1cm^−1, the “λabs (absorbance maxima)” value [2] was 244 nm and the “Stokes Shift” value [3] was 38 nm. The “λex (excitation maxima)” value [3] was 244 nm, the “λem (emission maxima)” value [3] was 359 nm and the “φ (fluorescent quantum yield, single point method)” value [3] was 0.4. For the same molecule, the toxicity [4, 6] was “display toxicity”, the toxicity [4, 7] was “neither dye displayed toxicity” and the “distribution of emission in the cell” value [5] was “stronger emission from the center of the cell”.

For `CCCCCCCCc1ccc2c(c1)-c1cc(CCCC(=O)O)ccc1S2(=O)=O` [Compound 9, 4-(8-octyl-5,5-dioxidodibenzo[b,d]thiophen-2-yl)butanoic acid], the cellular localization [1] was “localize in the plasma membrane”, the “Pearson correlation coefficient with CellMask Orange” value [1] was 0.81 and the “log εmax (maximum molar extinction coefficient)” value [2] was 3.81 M^−1 cm^−1. The molar absorptivity [2] was 66,000 M^−1cm^−1, the “λabs (absorbance maxima)” value [2] was 247 nm and the “Stokes Shift” value [3] was 38 nm. The “λex (excitation maxima)” value [3] was 248 nm, the “λem (emission maxima)” value [3] was 357 nm and the “φ (fluorescent quantum yield, single point method)” value [3] was 0.67. The toxicity [4, 6] was “display toxicity”, the toxicity [4, 7] was “neither dye displayed toxicity” and the “distribution of emission in the cell” value [5] was “more extranuclear emission”.
